Test results as given in patent US20260285850A1, “SUBSTITUTED OXAZOLIDINONES AND IMIDAZOLINONES AS HERBICIDES” (FMC CORPORATION, priority 2023, published 2026).

Columns and labels:
Format in all cases: in vivo
[1] = tested on: oat, wild (wild oat, Avena fatua); assay: Test A postemergence application, visual injury rating 0-100
Procedure, shortened: (§1)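 Greenhouse test: loam/sand pots received a surfactant-containing formulation, as a preemergence directed soil spray or a postemergence spray on young plants. Injury was judged visually at day 10 relative to untreated controls.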

[2] = tested on: blackgrass (Alopecurus myosuroides); assay: as above
Procedure, shortened: as §1

[3] = tested on: kochia (Bassia scoparia); assay: as above
Procedure, shortened: as §1

[4] = tested on: green foxtail (Setaria viridis); assay: as above
Procedure, shortened: as §1

[5] = tested on: palmer (palmer amaranth, palmer pigweed, Amaranthus palmeri); assay: as above
Procedure, shortened: as §1

[6] = tested on: soybean (Glycine max); assay: as above
Procedure, shortened: as §1

[7] = tested on: barnyardgrass (Echinochloa crus-galli); assay: as above
Procedure, shortened: as §1

[8] = tested on: galium (catchweed bedstraw, Galium aparine); assay: as above; details: Postemergence, 16 g ai/ha, greenhouse 10 days; 0 no effect, 100 complete control
Procedure, shortened: as §1

[9] = tested on: ragweed (common ragweed, Ambrosia artemisiifolia); assay: as above
Procedure, shortened: as §1

[10] = tested on: ryegrass, Italian (italian ryegrass, Lolium multiflorum); assay: as above
Procedure, shortened: as §1

[11] = tested on: corn (Zea mays); assay: as above
Procedure, shortened: as §1

[12] = tested on: wheat (Triticum aestivum); assay: as above
Procedure, shortened: as §1

[13] = tested on: horseweed (Erigeron canadensis); assay: as above
Procedure, shortened: as §1

[14] = tested on: barnyardgrass (Echinochloa crusgalli); assay: Test B flooded paddy test, visual plant response rating 0-100; details: 250 g ai/ha, Flood, applied to paddy water, evaluated after 13 days
Procedure, shortened: (§2)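 Paddy-water application: test compounds went directly into water flooded 3 cm above the soil surface, with plants at 2 leaves. After a 13-day greenhouse period, responses were judged by eye relative to controls; a dash marks an untested entry.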

[15] = tested on: ducksalad (Heteranthera limosa); assay: as above; details: 250 g ai/ha, Flood, applied to paddy water, evaluated after 13 days
Procedure, shortened: as §2

[16] = tested on: rice (Oryza sativa); assay: as above; details: 250 g ai/ha, Flood, applied to paddy water, evaluated after 13 days
Procedure, shortened: as §2

[17] = tested on: sedge, umbrella (small-flower umbrella sedge, Cyperus difformis); assay: as above; details: 250 g ai/ha, Flood, applied to paddy water, evaluated after 13 days
Procedure, shortened: as §2

[18] = tested on: oat, wild (wild oat, Avena fatua); assay: Test A preemergence soil spray, visual injury rating 0-100; details: 10 days
Procedure, shortened: as §1

[19] = tested on: blackgrass (Alopecurus myosuroides); assay: as above; details: 10 days
Procedure, shortened: as §1

[20] = tested on: kochia (Bassia scoparia); assay: as above; details: 10 days
Procedure, shortened: as §1

[21] = tested on: green foxtail (Setaria viridis); assay: as above; details: 10 days
Procedure, shortened: as §1

[22] = tested on: palmer (palmer amaranth, palmer pigweed, Amaranthus palmeri); assay: as above; details: 10 days
Procedure, shortened: as §1

[23] = tested on: soybean (Glycine max); assay: as above; details: 10 days
Procedure, shortened: as §1

[24] = tested on: barnyardgrass (Echinochloa crus-galli); assay: as above; details: 10 days
Procedure, shortened: as §1

[25] = tested on: ragweed (common ragweed, Ambrosia artemisiifolia); assay: as above; details: 10 days
Procedure, shortened: as §1

[26] = tested on: ryegrass, Italian (italian ryegrass, Lolium multiflorum); assay: as above; details: 10 days
Procedure, shortened: as §1

[27] = tested on: corn (Zea mays); assay: as above; details: 10 days
Procedure, shortened: as §1

[28] = tested on: wheat (Triticum aestivum); assay: as above; details: 10 days
Procedure, shortened: as §1

[29] = 62 g ai/ha, postemergence, 10 days, 0 = no effect, 100 = complete control
[30] = Postemergence, 16 g ai/ha, greenhouse 10 days, 0 no effect, 100 complete control
[31] = 62 g ai/ha, 0 = no effect, 100 = complete control

CC1(C(=O)NC2CC=C(C(=O)NS(=O)(=O)C3CC3)C2)CN(c2cc(F)cc(F)c2)C(=O)O1 (racemic) [Compound 90]
70: Kochia plant response rating (0 to 100 scale) [3, 30] | Pigweed, Palmer plant response rating (0-100) [5, 29] | Ryegrass, Italian plant response rating (0-100) [10, 29] | Wheat plant response rating (0-100) [12, 29]
80: Blackgrass plant response rating (0-100) [2, 29] | Kochia plant response rating (0-100) [3, 29] | Foxtail, Green plant response rating (0-100) [4, 29]
50: Oat, Wild plant response rating (0-100) [1, 29]
20: Oat, Wild plant response rating (0 to 100 scale) [1, 30] | Ryegrass, Italian plant response rating (0 to 100 scale) [10, 30] | Pigweed, Palmer plant response rating (0-100) [22, 31]
100: Corn plant response rating (0-100) [11, 29]
60: Horseweed plant response rating (0-100) [13, 29]
0: Foxtail, Green plant response rating (0 to 100 scale) [4, 30] | Pigweed, Palmer plant response rating (0 to 100 scale) [5, 30] | Ragweed plant response rating (0 to 100 scale) [9, 30] | Horseweed plant response rating (0 to 100 scale) [13, 30] | Plant response rating, Barnyardgrass (0 to 100 scale, 0 is no effect and 100 is complete control) [14] | Plant response rating, Ducksalad (0 to 100 scale, 0 is no effect and 100 is complete control) [15] | Plant response rating, Rice (0 to 100 scale, 0 is no effect and 100 is complete control) [16] | Plant response rating, Sedge, Umbrella (0 to 100 scale, 0 is no effect and 100 is complete control) [17] | Oat, Wild plant response rating ([18]; 16 g ai/ha, 0 to 100 scale) | Oat, Wild plant response rating (0-100) [18, 31] | Blackgrass plant response rating ([19]; 16 g ai/ha, 0 to 100 scale) | Blackgrass plant response rating (0-100) [19, 31] | Kochia plant response rating ([20]; 16 g ai/ha, 0 to 100 scale) | Kochia plant response rating (0-100) [20, 31] | Foxtail, Green plant response rating ([21]; 16 g ai/ha, 0 to 100 scale) | Soybean plant response rating ([23]; 16 g ai/ha, 0 to 100 scale) | Barnyardgrass plant response rating ([24]; 16 g ai/ha, 0 to 100 scale) | Barnyardgrass plant response rating (0-100) [24, 31] | Ragweed plant response rating ([25]; 16 g ai/ha, 0 to 100 scale) | Ragweed plant response rating (0-100) [25, 31] | Ryegrass, Italian plant response rating ([26]; 16 g ai/ha, 0 to 100 scale) | Ryegrass, Italian plant response rating (0-100) [26, 31] | Corn plant response rating ([27]; 16 g ai/ha, 0 to 100 scale) | Corn plant response rating (0-100) [27, 31] | Wheat plant response rating ([28]; 16 g ai/ha, 0 to 100 scale) | Wheat plant response rating (0-100) [28, 31]
40: Soybean plant response rating (0-100) [6, 29] | Galium plant response rating (0 to 100 scale) [8] | Wheat plant response rating (0 to 100 scale) [12, 30]
90: Barnyardgrass plant response rating (0-100) [7, 29]
30: Soybean plant response rating (0 to 100 scale) [6, 30] | Barnyardgrass plant response rating (0 to 100 scale) [7, 30] | Ragweed plant response rating (0-100) [9, 29] | Corn plant response rating (0 to 100 scale) [11, 30]
10: Blackgrass plant response rating (0 to 100 scale) [2, 30] | Foxtail, Green plant response rating (0-100) [21, 31] | Pigweed, Palmer plant response rating ([22]; 16 g ai/ha, 0 to 100 scale) | Soybean plant response rating (0-100) [23, 31]
